Measured values: patent publication US4430328A, “Ruminant lactation improvement” (Eli Lilly and Company, priority 1982, dated 1984)

Experiments:
[1] = system: Holstein cows; assay: nine-week comparative activity and persistency test of glycopeptides; format: in vivo; settings: 600 mg/head/day
Protocol: Another test was carried out to determine the comparative activity of glycopeptides and their persistency in altering milk production. Holstein cows were assigned as they calved to blocks of […] cows each. Within each block a random order of treatments was assigned. A nine-week study was started two weeks following calving. All cows underwent a one week preliminary period during which they received corn silage-concentrate, grain, hay and water. During the following eight week period, in addition to the normal feed ration, one group of six animals received no treatment (controls), another group of six animals received 600 mg/head/day actaplanin, and a third group of six cows received 600 mg/head/day of glycopeptide A35512B. Average daily milk production, milk composition, and persistency of milk production were analyzed. The data in Table VI are the averages for the daily determinations for the entire nine week trial period. The table reports average milk production and milk composition of nontreated controls and treated groups. The persistency values were calculated by dividing the average milk production during the eight week treatment period by average production during the preliminary non-treatment period. Persistency values express how well the treatment groups performed after initialization of treatment compared to performance before treatment initialization. Normal persistency for the trial was expected to be about 94 to about 96 percent. All treatment groups had higher persistencies, thus indicating an observable response to treatment even during a short term.

[2] = system: dairy cows; settings: cited from earlier work

| Structure (SMILES) | Milk Composition Fat [1] | Milk Composition Protein [1] | Milk Composition Solids [1] | protein content compared to non-treated controls [1] | Milk Produced ([1]; average of daily determinations, nine week trial) | Persistency ([1]; average production in eight week treatment period divided by preliminary period) | fat content of milk [2] | fat-corrected-milk production [2] | volume of milk produced [2] |
| --- | --- | --- | --- | --- | --- | --- | --- | --- | --- |
| COC(=O)[C@H]1NC(=O)[C@H]2NC(=O)[C@H](NC(=O)[C@@H]3NC(=O)C4NC(=O)[C@H](NC(=O)[C@H](N)c5cccc(O)c5Oc5cc(O[C@@H]6O[C@H](C)[C@H](O)[C@H](O)[C@@H]6O)c(Cl)c4c5)[C@H](O)c4ccc(cc4)Oc4cc3cc(c4O[C@@H]3O[C@H](CO)[C@@H](O)[C@@H](O[C@@H]4O[C@@H](C)[C@@H](O)[C@@H](O)[C@H]4O)[C@H]3O)Oc3ccc(cc3)[C@H]2O[C@H]2C[C@](C)(N)[C@H](O)[C@H](C)O2)c2ccc(O[C@H]3O[C@@H](CO)[C@H](O)[C@@H](O)[C@@H]3O)c(c2)-c2c(O)cc(O)cc21 [A35512B] | 3.36% | 3.36% | 11.44% | may be enhanced | 56.0 pounds/day | 99.4% |  |  |  |
| CC[C@@]1([C@@H]2O[C@@H]([C@H]3O[C@@](O)(CO)[C@H](C)C[C@@H]3C)C[C@@H]2C)CC[C@H]([C@]2(C)CC[C@]3(C[C@H](O)[C@@H](C)[C@@H]([C@@H](C)[C@@H](OC)[C@H](C)C(=O)O)O3)O2)O1 [monensin] |  |  |  |  |  |  | significantly reduced | unchanged | increase |
